Assay results taken from article PMC8110907, “Arabidopsis Carboxylesterase 20 Binds Strigolactone and Increases Branches and Tillers When Ectopically Expressed in Arabidopsis and Maize” (Frontiers in Plant Science, 2021).
One block for each molecule: values may come before it.

Experiments:
[1] = biological target: T1, AtCXE20 (carboxylesterase 20) (Arabidopsis thaliana, UniProt Q9LVB8); assay: esterase assay with p-nitrophenyl acetate, Michaelis-Menten kinetics; assay type: biochemical
T1 construct: gene CXE20; recombinant AtCXE20 with 20-amino acid N-terminal peptide fusion including a 6-histidine tag, expressed in E. coli
T1 sequence (Q9LVB8 1-327): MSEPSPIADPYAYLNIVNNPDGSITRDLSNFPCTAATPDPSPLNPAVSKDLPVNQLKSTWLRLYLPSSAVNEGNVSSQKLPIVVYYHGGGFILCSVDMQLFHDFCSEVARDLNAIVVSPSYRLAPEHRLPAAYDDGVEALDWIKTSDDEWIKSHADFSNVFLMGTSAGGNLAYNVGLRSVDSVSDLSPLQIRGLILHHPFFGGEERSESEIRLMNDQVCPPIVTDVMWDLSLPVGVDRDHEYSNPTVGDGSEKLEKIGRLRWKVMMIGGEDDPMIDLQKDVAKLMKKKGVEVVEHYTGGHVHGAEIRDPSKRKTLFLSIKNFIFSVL

[2] = biological target: T1, AtCXE20 (carboxylesterase 20); assay: esterase inhibition at […] (p-nitrophenyl acetate substrate); also decreased intrinsic fluorescence at […]; assay type: biochemical
purified protein = substrate: CC(=O)Oc1ccc([N+](=O)[O-])cc1; assay: purified protein; assay type: biochemical, Arabidopsis thaliana; conditions: catalytic triad S166, H302, D272 (homology model)

Ki [1]: 5 µM
Molecule: CC1=C[C@H](O/C=C2/C(=O)O[C@@H]3C4=C(CCCC4(C)C)C[C@H]23)OC1=O [5-DS, 5-deoxystrigol]

Molecule: CC1=CC(O/C=C2/C(=O)OC3c4ccccc4CC23)OC1=O (racemic) [GR24, rac-GR24]
esterase inhibition at 20 μM (p-nitrophenyl acetate substrate); also decreased i [2]: substantial inhibition was observed with the synthetic SL racemic mixture GR24

B1: AtCXE20 (carboxylesterase 20) (Arabidopsis thaliana) (protein)
chain: T1 sequence (Q9LVB8 1-327)
notes: recombinant AtCXE20 with 20-amino acid N-terminal peptide fusion including a 6-histidine tag, expressed in E. coli
Km (purified protein): 251 ± 26 µM
